The results in this text go back to patent publication US20240210412A1, “SULFONYL-TRIAZOLE COMPOUNDS USEFUL AS LIGANDS AND INHIBITORS OF PROSTAGLANDIN REDUCTASE 2” (University of Virginia Patent Foundation, priority 2021, published 2024).

Holding throughout (assay): SILAC LC-MS ABPP
Holding throughout (format): cell-based
Common to all, as to settings: 25 μM 2 h, live DM93 cells

In one experiment the target is T1, P09960 (Homo sapiens, UniProt P09960).
T1 construct: endogenous in cells; host or cells: DM93 cells (SILAC)
T1 sequence (P09960 whole entry): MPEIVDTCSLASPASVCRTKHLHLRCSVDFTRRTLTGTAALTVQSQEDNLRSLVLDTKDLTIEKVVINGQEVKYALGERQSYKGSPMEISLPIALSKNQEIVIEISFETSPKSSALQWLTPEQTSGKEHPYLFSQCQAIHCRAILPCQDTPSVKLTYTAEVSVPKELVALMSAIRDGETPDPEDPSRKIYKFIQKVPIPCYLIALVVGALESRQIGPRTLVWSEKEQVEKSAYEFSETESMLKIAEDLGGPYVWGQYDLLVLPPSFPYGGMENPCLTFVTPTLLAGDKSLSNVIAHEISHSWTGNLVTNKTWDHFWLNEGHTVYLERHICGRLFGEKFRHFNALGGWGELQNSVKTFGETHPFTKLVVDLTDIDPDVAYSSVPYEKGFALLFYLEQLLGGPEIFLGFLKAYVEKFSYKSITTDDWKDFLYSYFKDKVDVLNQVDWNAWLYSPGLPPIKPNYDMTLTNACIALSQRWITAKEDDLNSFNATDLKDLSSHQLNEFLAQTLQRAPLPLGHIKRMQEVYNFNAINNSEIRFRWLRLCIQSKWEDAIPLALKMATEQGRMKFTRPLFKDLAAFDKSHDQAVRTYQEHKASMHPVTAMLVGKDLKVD
The method in brief:
(§1)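 DM93 melanoma cells under SILAC: light treated with DMSO, heavy with SuTEx ligand (25 μM, 2 h, 37 °C) in serum-free medium, then HHS-475 alkyne probe (100 μM, 2 h, 37 °C). Soluble proteomes clicked to desthiobiotin-PEG3-azide by CuAAC, mixed 1:1, trypsinised, avidin-enriched; probe-modified tyrosine peptides quantified by LC-MS/MS.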

A further experiment has as its target T2, Q00341 (Homo sapiens, UniProt Q00341).
T2 construct: performing SuTEx compound screening directly in cells; endogenous in cells; host or cells: DM93 cells (SILAC)
The method in brief: as §1

Another experiment has as its target T3, Q6ZSZ5 (Homo sapiens, UniProt Q6ZSZ5).
T3 construct: endogenous in cells; host or cells: DM93 cells (SILAC), live-cell treatment
Put shortly: as §1

A further experiment deals with T4, P07814 (Homo sapiens, UniProt P07814).
T4 construct: endogenous in cells; host or cells: DM93 cells (SILAC)
The method in brief:
as §1

The target in the next experiment is T5, P24534 (Homo sapiens, UniProt P24534).
T5 construct: endogenous in cells; host or cells: DM93 (SILAC)
T5 sequence (P24534 whole entry): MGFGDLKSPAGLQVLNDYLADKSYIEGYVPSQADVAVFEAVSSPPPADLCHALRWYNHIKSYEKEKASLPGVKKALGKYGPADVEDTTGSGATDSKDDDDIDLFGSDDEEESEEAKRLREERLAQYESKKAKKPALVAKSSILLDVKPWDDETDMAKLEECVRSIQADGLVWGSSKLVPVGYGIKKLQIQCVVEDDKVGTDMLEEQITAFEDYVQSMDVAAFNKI
The method in brief: as §1

For the next experiment, the target named is T6, P39019 (Homo sapiens, UniProt P39019).
T6 construct: Probe-modified proteins from the soluble fraction were conjugated to a desthiobiotin-azide tag; endogenous in cells; host or cells: DM93 (SILAC)
The method in brief: as §1

The target of the next experiment is T7, P08238 (Homo sapiens, UniProt P08238).
T7 construct: endogenous in cells; host or cells: DM93 cells (SILAC)
T7 sequence (P08238 whole entry): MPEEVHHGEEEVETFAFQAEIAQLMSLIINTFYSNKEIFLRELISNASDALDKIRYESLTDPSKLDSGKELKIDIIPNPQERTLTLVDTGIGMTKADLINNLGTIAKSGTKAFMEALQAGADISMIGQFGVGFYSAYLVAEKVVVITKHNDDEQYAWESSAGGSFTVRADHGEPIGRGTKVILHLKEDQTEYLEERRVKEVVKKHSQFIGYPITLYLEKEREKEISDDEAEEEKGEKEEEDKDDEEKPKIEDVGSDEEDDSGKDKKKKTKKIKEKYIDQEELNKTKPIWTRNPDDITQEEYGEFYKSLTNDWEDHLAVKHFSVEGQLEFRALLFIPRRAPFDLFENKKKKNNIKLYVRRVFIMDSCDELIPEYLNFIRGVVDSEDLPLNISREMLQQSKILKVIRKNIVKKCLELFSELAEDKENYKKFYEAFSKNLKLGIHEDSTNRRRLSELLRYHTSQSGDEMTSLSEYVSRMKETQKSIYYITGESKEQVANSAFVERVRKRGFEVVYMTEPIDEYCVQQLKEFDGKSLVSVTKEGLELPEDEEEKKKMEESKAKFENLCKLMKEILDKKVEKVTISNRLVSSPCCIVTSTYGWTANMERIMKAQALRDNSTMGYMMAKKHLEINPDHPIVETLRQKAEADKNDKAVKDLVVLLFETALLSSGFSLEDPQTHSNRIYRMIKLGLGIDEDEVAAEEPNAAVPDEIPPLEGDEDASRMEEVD
Put shortly: as §1

Another experiment has as its target T8, O60828 (Homo sapiens, UniProt O60828).
T8 construct: endogenous in cells; host or cells: DM93
Put shortly:
as §1

A further experiment concerns the target T9, P30086 (Homo sapiens, UniProt P30086).
T9 construct: endogenous in cells; host or cells: DM93 (SILAC)
The method in brief:
as §1

The target of a further experiment is T10, P46013 (Homo sapiens, UniProt P46013).
T10 construct: endogenous in cells; host or cells: DM93 cells (SILAC)
Put shortly:
as §1

The target in a further experiment is T11, Q5T6F2 (Homo sapiens, UniProt Q5T6F2).
T11 construct: performing SuTEx compound screening directly in cells; endogenous in cells; host or cells: DM93 cells (SILAC), soluble fraction
T11 sequence (Q5T6F2 whole entry): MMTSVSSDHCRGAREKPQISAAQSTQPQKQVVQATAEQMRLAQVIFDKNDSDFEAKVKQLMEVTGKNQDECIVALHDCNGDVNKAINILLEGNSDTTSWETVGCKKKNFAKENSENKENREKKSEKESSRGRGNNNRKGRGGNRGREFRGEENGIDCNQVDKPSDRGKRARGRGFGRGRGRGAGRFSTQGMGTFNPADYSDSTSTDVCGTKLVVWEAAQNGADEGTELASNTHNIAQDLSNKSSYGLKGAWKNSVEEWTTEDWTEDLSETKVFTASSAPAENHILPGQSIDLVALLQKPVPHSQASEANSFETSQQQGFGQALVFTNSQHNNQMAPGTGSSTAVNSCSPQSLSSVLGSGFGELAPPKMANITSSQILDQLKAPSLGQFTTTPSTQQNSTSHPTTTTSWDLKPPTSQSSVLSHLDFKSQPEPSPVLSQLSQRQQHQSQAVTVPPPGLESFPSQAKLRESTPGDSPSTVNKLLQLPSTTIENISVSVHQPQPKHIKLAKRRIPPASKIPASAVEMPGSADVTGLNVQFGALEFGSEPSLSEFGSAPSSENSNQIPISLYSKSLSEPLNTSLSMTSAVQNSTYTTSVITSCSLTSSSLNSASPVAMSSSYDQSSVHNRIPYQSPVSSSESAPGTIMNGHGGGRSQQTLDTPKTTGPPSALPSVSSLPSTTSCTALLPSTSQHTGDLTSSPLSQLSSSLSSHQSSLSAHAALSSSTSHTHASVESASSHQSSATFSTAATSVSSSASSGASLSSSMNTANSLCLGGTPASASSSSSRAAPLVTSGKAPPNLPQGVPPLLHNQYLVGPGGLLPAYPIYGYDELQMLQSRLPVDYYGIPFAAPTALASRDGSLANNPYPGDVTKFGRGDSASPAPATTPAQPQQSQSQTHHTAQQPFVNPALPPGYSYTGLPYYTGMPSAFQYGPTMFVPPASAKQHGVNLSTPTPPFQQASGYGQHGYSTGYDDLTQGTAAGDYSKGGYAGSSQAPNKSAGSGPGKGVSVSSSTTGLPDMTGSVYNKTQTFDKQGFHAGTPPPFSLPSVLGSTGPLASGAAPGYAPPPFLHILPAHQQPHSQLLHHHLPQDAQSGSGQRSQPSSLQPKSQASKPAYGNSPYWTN
The method in brief:
as §1

T2 sequence (Q00341 whole entry): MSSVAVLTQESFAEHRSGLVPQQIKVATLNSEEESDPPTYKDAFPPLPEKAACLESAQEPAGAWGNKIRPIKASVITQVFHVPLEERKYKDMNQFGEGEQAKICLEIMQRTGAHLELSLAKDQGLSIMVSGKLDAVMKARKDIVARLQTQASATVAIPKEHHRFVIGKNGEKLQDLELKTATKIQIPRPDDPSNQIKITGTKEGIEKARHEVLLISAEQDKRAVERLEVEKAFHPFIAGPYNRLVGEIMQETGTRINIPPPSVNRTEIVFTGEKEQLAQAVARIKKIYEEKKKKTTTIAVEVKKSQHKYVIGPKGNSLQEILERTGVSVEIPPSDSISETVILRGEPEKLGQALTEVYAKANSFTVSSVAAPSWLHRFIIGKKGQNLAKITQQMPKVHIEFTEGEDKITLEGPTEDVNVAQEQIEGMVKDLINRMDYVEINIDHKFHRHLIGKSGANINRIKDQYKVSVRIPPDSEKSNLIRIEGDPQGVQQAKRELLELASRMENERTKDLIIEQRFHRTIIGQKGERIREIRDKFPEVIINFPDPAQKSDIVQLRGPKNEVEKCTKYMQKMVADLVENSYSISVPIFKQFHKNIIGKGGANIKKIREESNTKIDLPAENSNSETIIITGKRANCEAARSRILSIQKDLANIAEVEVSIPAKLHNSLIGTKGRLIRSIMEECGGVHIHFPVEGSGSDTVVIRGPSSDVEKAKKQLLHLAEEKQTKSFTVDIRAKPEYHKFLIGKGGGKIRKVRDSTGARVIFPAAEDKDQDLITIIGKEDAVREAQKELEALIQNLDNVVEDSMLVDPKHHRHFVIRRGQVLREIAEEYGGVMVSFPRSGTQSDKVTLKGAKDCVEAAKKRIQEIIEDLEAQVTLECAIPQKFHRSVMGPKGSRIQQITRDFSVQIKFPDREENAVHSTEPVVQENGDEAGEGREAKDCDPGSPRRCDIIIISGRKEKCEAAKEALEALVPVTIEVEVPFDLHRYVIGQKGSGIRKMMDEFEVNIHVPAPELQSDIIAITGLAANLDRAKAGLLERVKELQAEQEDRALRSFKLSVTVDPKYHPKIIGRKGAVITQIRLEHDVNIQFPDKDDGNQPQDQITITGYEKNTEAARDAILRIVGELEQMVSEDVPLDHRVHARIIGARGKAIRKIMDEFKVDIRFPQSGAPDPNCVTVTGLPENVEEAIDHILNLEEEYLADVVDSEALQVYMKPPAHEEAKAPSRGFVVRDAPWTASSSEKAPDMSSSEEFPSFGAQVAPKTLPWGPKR
T8 sequence (O60828 whole entry): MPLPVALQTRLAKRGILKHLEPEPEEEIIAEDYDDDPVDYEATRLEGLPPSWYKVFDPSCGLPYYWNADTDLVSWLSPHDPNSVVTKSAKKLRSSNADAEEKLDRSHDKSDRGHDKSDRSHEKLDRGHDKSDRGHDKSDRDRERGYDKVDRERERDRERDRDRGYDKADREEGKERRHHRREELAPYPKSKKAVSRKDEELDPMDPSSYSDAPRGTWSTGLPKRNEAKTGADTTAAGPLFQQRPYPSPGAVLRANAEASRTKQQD
T9 sequence (P30086 whole entry): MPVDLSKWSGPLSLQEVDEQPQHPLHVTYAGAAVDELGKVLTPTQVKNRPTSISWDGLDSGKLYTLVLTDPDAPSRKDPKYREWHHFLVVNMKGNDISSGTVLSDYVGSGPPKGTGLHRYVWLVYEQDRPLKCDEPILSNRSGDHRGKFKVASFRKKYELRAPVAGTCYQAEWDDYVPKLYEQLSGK

In the case of `O=C(c1ccc(S(=O)(=O)n2cncn2)cc1)N1CCC(c2ccccc2)CC1` [HHS-0701, (4-((1H-1,2,4-triazol-1-yl)sulfonyl)phenyl)(4-phenylpiperidin-1-yl)methanone], on P09960, the “liganded tyrosine site 379” value is given as “HHS0701.Y (tyrosine sites that showed >80% reductions (SR >5) in probe labeling in cells treated with compounds (liganded sites))” and the “liganded tyrosine site 384” value is listed as “HHS0701.Y (tyrosine sites that showed >80% reductions (SR >5) in probe labeling in cells treated with compounds (liganded sites))”.

In the case of `O=C(NCC1CC1)c1ccc(S(=O)(=O)n2cncn2)cc1` [HHS-0201, 4-((1H-1,2,4-triazol-1-yl)sulfonyl)-N-(cyclopropylmethyl)benzamide], the “liganded tyrosine site 582” value at Q00341 is listed as “HHS0201.Y (tyrosine sites that showed >80% reductions (SR >5) in probe labeling in cells treated with compounds (liganded sites))”. The “liganded tyrosine site 1012” value on Q6ZSZ5 is “HHS0201.Y (tyrosine sites that showed >80% reductions (SR >5) in probe labeling in cells treated with compounds (liganded sites))”. In addition, at P07814, the “liganded tyrosine site 864” value is listed as “HHS0201.Y (tyrosine sites that showed >80% reductions (SR >5) in probe labeling in cells treated with compounds (liganded sites))”. Moreover, the “liganded tyrosine site 18” value on P24534 was “HHS0201.Y|HHS0401.Y|HHS0701.Y (tyrosine sites that showed >80% reductions (SR >5) in probe labeling in cells treated with compounds (liganded sites))”. In addition, the “liganded tyrosine site 54” value on P39019 is given as “HHS0201.Y (tyrosine sites that showed >80% reductions (SR >5) in probe labeling in cells treated with compounds (liganded sites))”.

For `O=C(NC1CC1)c1ccc(S(=O)(=O)n2cncn2)cc1` [HHS-0101, 4-((1H-1,2,4-triazol-1-yl)sulfonyl)-N-cyclopropylbenzamide], the “liganded tyrosine site 430” value on P08238 is reported as “HHS0101.Y|HHS0201.Y|HHS0301.Y|HHS0401.Y (tyrosine sites that showed >80% reductions (SR >5) in probe labeling in cells treated with compounds (liganded sites))”. Also, at O60828, the “liganded tyrosine site 209” value was “HHS0101.Y|HHS0401.Y (tyrosine sites that showed >80% reductions (SR >5) in probe labeling in cells treated with compounds (liganded sites))”.

For the compound `O=C(NC1CCCCC1)c1ccc(S(=O)(=O)n2cncn2)cc1` [HHS-0301, 4-((1H-1,2,4-triazol-1-yl)sulfonyl)-N-cyclohexylbenzamide], the “liganded tyrosine site 106” value on P30086 was “HHS0301.Y (tyrosine sites that showed >80% reductions (SR >5) in probe labeling in cells treated with compounds (liganded sites))”.

In the case of `O=C(NCc1ccccc1)c1ccc(S(=O)(=O)n2cncn2)cc1` [HHS-0401, 4-((1H-1,2,4-triazol-1-yl)sulfonyl)-N-benzylbenzamide], the “liganded tyrosine site 340” value on P46013 was “HHS0401.Y|HHS0701.Y (tyrosine sites that showed >80% reductions (SR >5) in probe labeling in cells treated with compounds (liganded sites))”. On Q5T6F2, the “liganded tyrosine site 823” value is reported as “HHS0401.Y (tyrosine sites that showed >80% reductions (SR >5) in probe labeling in cells treated with compounds (liganded sites))” and the “liganded tyrosine site 825” value is “HHS0401.Y (tyrosine sites that showed >80% reductions (SR >5) in probe labeling in cells treated with compounds (liganded sites))”.
